Test results as given in patent US10081609B2, “Compounds for inducing proliferation and differentiation of cells, and methods of use thereof” (The Broad Institute, Inc., priority 2013, dated 2018).
≈ marks a conversion by molar mass, not a printed value. Where “and” joins values, the source holds several entries; their conditions need not be identical. Identical values can stand only once. Like-named read-outs stand apart in the source and are kept apart here.

How the values were obtained:
Protein binding - Human = assay type: in vitro ADME
Protocol: (§1) Selected compounds of the invention were evaluated for physico-chemical properties, including solubility, microsomal stability, protein binding and plasma stability (Table 2).
(§2) Selected compounds of the invention were evaluated for physico-chemical properties, including solubility, microsomal stability, protein binding and plasma stability (Table 3).

Plasma stability - Human = assay type: in vitro ADME
Protocol: as §1, §2

[1] = Microsomal stability - Human; assay type: in vitro ADME; conditions: for Microsomal stability No NADPH: non-enzymatic microsomal mechanisms only; for Microsomal stability Average: enzymatic and non-enzymatic microsomal mechanisms
Protocol: as §1, §2

[2] = Solubility in PBS with 1% DMSO; assay type: physicochemical
Protocol: as §1, §2

[3] = test system: human primary hepatocytes; test: High-throughput liver platform, primary screening: hepatocyte proliferation by automated high-content imaging (hepatocyte nuclei numbers); assay type: cell-based; conditions: for hit class in the high-throughput liver platform: human primary hepatocytes
Protocol: In order to avoid species-specific differences and cell line mutations, the screen was conducted with human primary hepatocytes. Traditionally, chemical screening on such cells has been hindered by their availability in large quantities as well as their rapid loss of viability and phenotype in vitro. Recent advances in cryopreservation technologies allowed enough primary human cells to be stored for screening; these cells are maintained through co-cultivation with non-parenchymal cells. Co-cultures of primary human hepatocytes with murine embryonic J2-3T3 fibroblasts were recently shown to maintain normal hepatocyte phenotype for weeks. These in vitro platforms consisted of hepatocytes surrounded by a co-planar population of fibroblasts. While sufficient for stabilizing hepatocyte functions in vitro, such platforms may limit normal hepatocyte expansion due to contact inhibition. Thus, for this screen, a sparse population of hepatocytes was co-cultivated on top of a confluent feeder layer of J2-3T3 fibroblasts within 384-well plates (FIG. 1A top). This screening platform stabilized hepatocyte phenotypic functions in vitro (FIG. 1A bottom) and was compatible with two separate high-throughput readouts developed for this screen.
The primary readout detected hepatocyte proliferation via automated high-content imaging. This assay quantified hepatocyte nuclei numbers, using nuclear morphologies to separate the hepatocyte and fibroblast subpopulations that co-exist within the screening platform. When visualized with Hoechst stain, hepatocyte nuclei were smaller and more uniform in texture while fibroblast nuclei were larger and punctated (FIG. 1A bottom). Leveraging this distinction, automated image analyses was developed that utilized machine learning algorithms to classify nuclei types and tabulate hepatocyte nuclei numbers. […] Besides quantifying hepatocyte nuclei that have completed mitosis, the number of nuclei in the process of mitosis were also quantified. Two additional analysis pipelines were built to detect nuclear morphologies consistent with cells undergoing metaphase and anaphase.
FIG. 1B top summarizes the workflow of the screen. Primary screening was done on human primary hepatocytes, preconditioned for seven days by non-parenchymal cells in the screening platform. Upon stabilization in vitro, cultures were treated with the chemical library for 48 hours. All compounds were tested in duplicates, at a single concentration of 15 μM. This single concentration was selected via a pilot screen of ˜2,000 small molecules. All 12,480 small molecules were initially tested on a single donor of cryopreserved hepatocytes (donor a) in order to eliminate noise from donor-to-donor variability. Following compound treatment, media supernatants were collected for functional analyses via ELISA and cultures were fixed in 4% paraformaldehyde for proliferation analyses via imaging.
To identify proliferation hits, three image-based readouts—one each to quantify the number of (1) hepatocyte nuclei in interphase, (2) nuclei in metaphase and (3) nuclei in anaphase—were integrated. z Scores were converted into p values, which were then used to generate ranked lists of compounds based on the efficacy and consistency of effects across the different proliferation readouts. Efficacy was assessed by the product of p values (pprod=pinter×pmeta×pana); consistency was evaluated by the maximum of p values (pmax=max(pinter, pmeta, pana). Compounds were considered proliferation hits if pprod<1×10^−6 and pmax<0.25. Functional hits were selected by an ELISA […]. Compounds with ELISA z>3.0 were eliminated as toxic. 93 compounds met all hit selection criteria, qualifying as Functional Proliferation Hits (FPH); FIG. 1B bottom illustrates the types of compounds that constituted this set of hits.

[4] = test system: human primary hepatocytes; test: Expansion of compound-treated human primary hepatocytes (cell counts, Ki67 staining); assay type: cell-based; conditions: FIG. 11A
Protocol: The metabolic phenotype of the treated hepatocytes was assessed for canalicular transport. […] Gene expression profiling confirmed that there was no significant differences between FPH-treated and untreated hepatocytes (FIG. 11D).
The ability of compounds 201-212, 215, 217 and 244-258 to expand human primary hepatocytes in vitro was also tested.

iHeps = test: Differentiation and maturation of iHeps (albumin/AFP ELISA, staining, CYP3A4 activity); assay type: cell-based, human
Protocol: Undifferentiated iPS cells were cultured on Matrigel, supported by primary mouse embryonic fibroblasts. Once confluent, iPS cells were transitioned to differentiation media, with sequential addition of growth factors (Activin A, BMP-4, bFGF, HGF, and OSM) to guide differentiation, first into endoderm, then into hepatic progenitor cells and finally into iHeps. Compound treatment started on day 21 post initiation of differentiation and acted over a period of 9 days.
Consistent with the literature, untreated cultures had islands that double stain for albumin and the fetal marker AFP, with very little presence of the mature marker […].
The ability of compounds 201-212, 217 and 244-258 to affect the differentiation of iHeps was also tested.

[5] = test system: transgenic lfabp:GFP zebrafish; test: Liver development in transgenic lfabp:GFP zebrafish embryos; assay type: in vivo; conditions: exposure 24 to 72 hrs post fertilization
Excerpt: The effects of FH1 and PH1 on liver development were examined in transgenic lfabp:GFP zebrafish, in which GFP expression is restricted to the liver. Zebrafish embryos were allowed to develop normally for 24 hrs post fertilization and then exposed to either FH1 or PH1 until 72 hrs post fertilization (FIG. 8A). Livers were visualized by whole-mount fluorescence imaging (FIG. 8B) and lfabp in situ hybridization (FIG. 8C).

[6] = test system: iPS-derived endothelial cells; test: Differentiation of iPS-derived endothelial cells (nitric oxide); assay type: cell-based
Protocol: Cells were assayed for nitric oxide (NO), a mature marker for endothelial cells. CB=FPH2, M=FH1, E=PH1, while Null and DMSO are control runs with no additive and vehicle only, respectively.

[7] = test system: lfabp:GFP zebrafish embryos; test: Therapeutic window after a non-fatal dose of APAP in zebrafish embryos (liver size); assay type: in vivo; conditions: 5 mM APAP for 24 hrs before 24 hour treatment
Protocol: The current clinical treatment for APAP toxicity is the administration of NAC, which has a limited window of efficacy. To examine the therapeutic window of FH1 and PH1 efficacy, lfabp:GFP zebrafish embryos were allowed to develop normally for 48 hrs post fertilization, and then exposed to a non-fatal dose of 5 mM APAP for 24 hrs before initiation of treatment with FH1 or PH1 for an additional 24 hour period (FIG. 10A).

[8] = aqueous buffer, kinetic from dmso stock, read-out: Solubility Average
[9] = aqueous buffer, kinetic from dmso stock, read-out: Solubility Rep1
[10] = aqueous buffer, kinetic from dmso stock, read-out: Solubility Rep2
[11] = aqueous buffer, kinetic from dmso stock, read-out: Solubility Rep3

Compound | Protein binding Average (Protein binding - Human) | Protein binding Rep1 (Protein binding - Human) | Protein binding Rep2 (Protein binding - Human) | Plasma stability Average (Plasma stability - Human) | Microsomal stability Rep1 [1] | Microsomal stability Rep2 [1] | Microsomal stability No NADPH [1] | Microsomal stability Average [1] | solubility [2, 8] | solubility [2, 9] | solubility [2, 10] | solubility [2, 11] | other results
CCCCOc1cc(CC2CNC(=O)N2)ccc1OC (stereo not drawn) [BRD-A07207424-001-04-1] | 75.6 % bound | 76.2 % bound | 75.0 % bound | 105.9 % remaining | 81.5 % remaining | 85.5 % remaining | 100.3 % remaining | 83.5 % remaining | > 100 µM | 112 µM (≈ 31.2 µg/mL) | 114 µM (≈ 31.7 µg/mL) | 104 µM (≈ 28.9 µg/mL) | –
CC(=O)Nc1ccc(Cc2ccc(NC(C)=O)cc2)cc1 [BRD-K44777625-001-01-9] | 91.0 % bound | 91.0 % bound | 91.0 % bound | 100.6 % remaining | 71 % remaining | 66.7 % remaining | 63 % remaining | 68.9 % remaining | 40 µM (≈ 11.3 µg/mL) | 45 µM (≈ 12.7 µg/mL) | 39 µM (≈ 11 µg/mL) | 36 µM (≈ 10.2 µg/mL) | –
CSc1ccccc1NC(=O)CN(c1cc(Cl)ccc1C)S(C)(=O)=O [Compound 102, 2-(N-(5-chloro-2-methylphenyl)methylsulfonamido)-N-(2-(methylthio)phenyl)acetamide] | – | – | – | – | – | – | – | – | – | – | – | – | proliferation Z score (hepatocyte nuclei count) [3]: 2.24; hit class in the high-throughput liver platform [3]: proliferation-only hit
CCCCC[C@H](O)/C=C/[C@H]1[C@H](O)CC(=O)[C@@H]1C/C=C\CCCC(=O)O [PGE2, Prostaglandin E2, reference compound] | – | – | – | – | – | – | – | – | – | – | – | – | hit class in the high-throughput liver platform [3]: FPH
CCCCOc1cc(CC2CNC(=O)N2)ccc1OC (stereo not drawn) [PH1, 4-(3-butoxy-4-methoxybenzyl)imidazolidin-2-one] | – | – | – | – | – | – | – | – | – | – | – | – | liver size compared to DMSO-treated controls [5]: increased; differentiation of iPS-derived endothelial cells (nitric oxide) [6]: induce differentiation; embryonic liver size / liver mass after APAP compared to controls [7]: mitigated APAP-induced loss of liver mass

Now from value to compound, other results behind:

Protein binding Average (Protein binding - Human) | Protein binding Rep1 (Protein binding - Human) | Protein binding Rep2 (Protein binding - Human) | Plasma stability Average (Plasma stability - Human) | Microsomal stability Rep1 [1] | Microsomal stability Rep2 [1] | Microsomal stability No NADPH [1] | Microsomal stability Average [1] | solubility [2, 8] | solubility [2, 9] | solubility [2, 10] | solubility [2, 11] | Compound | other results
91.2 % bound | 90.9 % bound | 91.6 % bound | 101.4 % remaining | 4.2 % remaining | 4.5 % remaining | 110.6 % remaining | 4.4 % remaining | 23 µM (≈ 9.68 µg/mL) | 23 µM (≈ 9.68 µg/mL) | 22 µM (≈ 9.26 µg/mL) | 26 µM (≈ 10.9 µg/mL) | Cc1ccc(Cl)cc1N(CC(=O)N(S)c1c(F)cccc1F)S(C)(=O)=O [BRD-K61250484-001-01-5] | –
95.8 % bound | 95.7 % bound | 95.9 % bound | 63.9 % remaining | 41.7 % remaining | 39.4 % remaining | 123.1 % remaining | 40.6 % remaining | 20 µM (≈ 7.08 µg/mL) | 23 µM (≈ 8.14 µg/mL) | 16 µM (≈ 5.66 µg/mL) | 21 µM (≈ 7.43 µg/mL) | CCn1cc(NC(=S)Nc2cc(Cl)ccc2OC)c(C(N)=O)n1 [BRD-K94248251] | –
– | – | – | – | – | – | – | – | 2.2 µM (≈ 0.759 µg/mL) | – | 1.9 µM (≈ 0.655 µg/mL) | 3.1 µM (≈ 1.07 µg/mL) | Clc1ccccc1C(c1ccccc1)(c1ccccc1)n1ccnc1 [Clotrimazole, reference compound] | solubility ([2]; read-out: Solubility Average): 2.6 µM (≈ 0.897 µg/mL); solubility ([2]; read-out: Solubility Rep2): 2.1 µM (≈ 0.724 µg/mL); solubility ([2]; read-out: Solubility Rep3): 2.0 µM (≈ 0.69 µg/mL)
99.3 % bound | 99.3 % bound | 99.3 % bound | 98.0 % remaining | 53.9 % remaining | 58.1 % remaining | 104.2 % remaining | 56.0 % remaining | 25 µM (≈ 13.7 µg/mL) | 23 µM (≈ 12.6 µg/mL) | 28 µM (≈ 15.3 µg/mL) | 24 µM (≈ 13.1 µg/mL) | C[C@H](CO)N1C[C@H](C)[C@H](CN(C)C(=O)Nc2ccc(F)cc2)Oc2ncc(-c3cc4ccccc4o3)cc2C1=O [Compound 106, 1-(((2R,3S)-8-(benzofuran-2-yl)-5-((R)-1-hydroxypropan-2-yl)-3-methyl-6-oxo-3,4,5,6-tetrahydro-2H-pyrido[2,3-b][1,5]oxazocin-2-yl)methyl)-3-(4-fluorophenyl)-1-methylurea] | proliferation of hepatocytes [4]: induced proliferation; albumin staining (immunofluorescent) (iHeps): dramatic increases; hepatocyte phenotype of treated iHeps (iHeps): more mature hepatocyte phenotypes; AFP secretion (ELISA) (iHeps; treatment from day 21, 9 days): decreased; albumin secretion (ELISA) (iHeps; treatment from day 21, 9 days): increased
– | – | – | 0.5 % remaining and 0.4 % remaining | – | – | – | – | – | – | – | – | CC1CC(OC(=O)C(O)c2ccccc2)CC(C)(C)N1C (stereo not drawn) [Eucatropine, reference compound] | –
